Assay results published in ChEMBL document CHEMBL3734730, “Discovery of novel 2-benzylisoquinolin-1(2H)-ones as potent vasodilative agents” (Bioorg Med Chem Lett, 2015).
pEC50: −log10 of the molar value. Blank lines part the entries; values can stand above or below the molecule they belong to. The source made the active and inactive calls. The rule behind the calls is not given here.

Assays:
[1] = Vasodilative activity in isolated Sprague-Dawley rat Superior mesenteric arterial ring assessed as reduction in KCl-induced contraction by wire myograph method relative to control; assay type: functional
[2] = Vasodilative activity in isolated Sprague-Dawley rat Superior mesenteric arterial ring assessed as reduction in KCl-induced contraction at 10^-5 by wire myograph method; assay type: functional; design: scale not given: the % may be the effect or the level left
[3] = Vasodilative activity in isolated Sprague-Dawley rat mesenteric arterial ring assessed as reduction in phenylephrine-induced contraction at 10 uM pretreated for 30 mins followed by addition of 10^-8 to 10^-4 M phenylephrine by wire myograph method relative to control; assay type: functional; settings: Mesenteric artery
[4] = test system: Rattus norvegicus; test: Antihypertensive activity in SHR rat assessed as reduced systolic pressure at 1 mg/kg, po after 2 hrs by tail-cuff plethysmography (reference value: 2 mmHg); assay type: functional, Blood
[5] = test system: Rattus norvegicus; test: Antihypertensive activity in SHR rat assessed as reduced systolic pressure at 2 mg/kg, po after 2 hrs by tail-cuff plethysmography (reference value: 2 mmHg); assay type: functional, Blood
[6] = test system: Rattus norvegicus; test: Antihypertensive activity in SHR rat assessed as reduced systolic pressure at 4 mg/kg, po after 2 hrs by tail-cuff plethysmography (reference value: 2 mmHg); assay type: functional, Blood
[7] = test system: Rattus norvegicus; test: Antihypertensive activity in SHR rat assessed as reduced systolic pressure at 8 mg/kg, po after 2 hrs by tail-cuff plethysmography (reference value: 2 mmHg); assay type: functional, Blood
[8] = test system: Rattus norvegicus; test: Antihypertensive activity in SHR rat assessed as reduced diastolic pressure at 1 mg/kg, po after 2 hrs by tail-cuff plethysmography (reference value: 2 mmHg); assay type: functional, Blood
[9] = test system: Rattus norvegicus; test: Antihypertensive activity in SHR rat assessed as reduced diastolic pressure at 2 mg/kg, po after 2 hrs by tail-cuff plethysmography (reference value: 2 mmHg); assay type: functional, Blood
[10] = test system: Rattus norvegicus; test: Antihypertensive activity in SHR rat assessed as reduced diastolic pressure at 4 mg/kg, po after 2 hrs by tail-cuff plethysmography (reference value: 2 mmHg); assay type: functional, Blood
[11] = test system: Rattus norvegicus; test: Antihypertensive activity in SHR rat assessed as reduced diastolic pressure at 8 mg/kg, po after 2 hrs by tail-cuff plethysmography (reference value: 2 mmHg); assay type: functional, Blood
[12] = test system: Rattus norvegicus; test: Antihypertensive activity in po-dosed SHR rat assessed as reduced diastolic pressure after 2 hrs by tail-cuff plethysmography; assay type: functional, organism-based; settings: Blood
[13] = test system: Rattus norvegicus; test: Antihypertensive activity in po-dosed SHR rat assessed as reduced systolic pressure after 2 hrs by tail-cuff plethysmography; assay type: functional, organism-based; settings: Blood
[14] = Vasodilative activity in isolated Sprague-Dawley rat second-order mesenteric arterial ring assessed as reduction in KCl-induced contraction by wire myograph method relative to control; assay type: functional; settings: Mesenteric artery
[15] = Vasodilative activity in isolated Sprague-Dawley rat third-order mesenteric arterial ring assessed as reduction in KCl-induced contraction by wire myograph method relative to control; assay type: functional; settings: Mesenteric artery
[16] = Vasodilative activity in isolated Sprague-Dawley rat renal arterial ring assessed as reduction in KCl-induced contraction by wire myograph method relative to control; assay type: functional; settings: Renal artery
[17] = Vasodilative activity in isolated Sprague-Dawley rat cerebral basilar arterial ring assessed as reduction in KCl-induced contraction by wire myograph method relative to control; assay type: functional; settings: Basilar artery
[18] = Vasodilative activity in isolated Sprague-Dawley rat coronary artery assessed as reduction in KCl-induced contraction by wire myograph method relative to control; assay type: functional, tissue-based
[19] = test system: Rattus norvegicus; test: Antihypertensive activity in SHR rat assessed as reduced systolic pressure at 4 mg/kg, po after 0.5 hrs by tail-cuff plethysmography; assay type: functional
[20] = test system: Rattus norvegicus; test: Antihypertensive activity in SHR rat assessed as reduced systolic pressure at 4 mg/kg, po after 1 hr by tail-cuff plethysmography; assay type: functional, Blood
[21] = test system: Rattus norvegicus; test: Antihypertensive activity in SHR rat assessed as reduced systolic pressure at 4 mg/kg, po after 5 hrs by tail-cuff plethysmography; assay type: functional, Blood
[22] = test system: Rattus norvegicus; test: Antihypertensive activity in SHR rat assessed as reduced diastolic pressure at 4 mg/kg, po after 0.5 hrs by tail-cuff plethysmography; assay type: functional, Blood
[23] = test system: Rattus norvegicus; test: Antihypertensive activity in SHR rat assessed as reduced diastolic pressure at 4 mg/kg, po after 1 hr by tail-cuff plethysmography; assay type: functional
[24] = test system: Rattus norvegicus; test: Antihypertensive activity in SHR rat assessed as reduced diastolic pressure at 4 mg/kg, po after 4 hrs by tail-cuff plethysmography; assay type: functional

pEC50 [1]: 5.50
Compound: COc1ccc2c(=O)n(Cc3ccc(OC)c(OC)c3)ccc2c1
Rmax [1]: 84.7%
Activity [2]: 59%

pEC50 [1]: 4.80
Compound: COc1cc2ccn(Cc3cc(OC)c(OC)c(OC)c3)c(=O)c2cc1OC
Rmax [1]: 73.1%
Activity [2]: 48.4%

pEC50 [1]: 4.60
Compound: O=c1c2cc(O)ccc2ccn1Cc1ccccc1
Rmax [1]: 60.6%
Activity [2]: 48.5%

pEC50 [1]: 5.30
Compound: COc1cc2ccn(Cc3cccc(N)c3)c(=O)c2cc1OC
Rmax [1]: 52.3%
Activity [2]: 51%

pEC50 [1]: 5.70
Compound: COc1ccc2c(=O)n(Cc3ccccc3)ccc2c1
Rmax [1]: 61.8%
Activity [2]: 60.1%

pEC50 [1]: 6.30
Compound: COc1cc(OC)c2c(=O)n(Cc3ccc(OCc4ccc(F)cc4)c(OC)c3)ccc2c1
Rmax [1]: 75.3%
Activity [2]: 74.1%

Compound: COc1cc2ccn(Cc3ccc(Cl)c(Cl)c3)c(=O)c2cc1OC
Activity [2]: 26.6%

pEC50 [1]: 5.50
Compound: O=c1c2ccc(O)cc2ccn1Cc1ccccc1
Rmax [1]: 74.2%
Activity [2]: 64.3%

pEC50 [1]: 6.60
Compound: COc1cc(Cn2ccc3cccc(OC)c3c2=O)cc(OC)c1OC
Rmax [1]: 98.7%
Activity [2]: 93.8%
inhibition [3]: Active
Activity [4]: 3 mmHg
Activity [5]: 15 mmHg
Activity [6]: 34 mmHg
Activity [7]: 44 mmHg
Activity [8]: 1 mmHg
Activity [9]: 12 mmHg
Activity [10]: 39 mmHg
Activity [11]: 49 mmHg
inhibition [12]: Dose-dependent effect
inhibition [13]: Dose-dependent effect

Compound: O=C(O)c1cccc(Cn2ccc3cc4c(cc3c2=O)OCO4)c1
Activity [2]: 34.2%

pEC50 [1]: 5.40
Compound: COc1cc2ccn(Cc3cccc(F)c3)c(=O)c2cc1OC
Rmax [1]: 54.2%
Activity [2]: 54%

pEC50 [1]: 5.40
Compound: COC(=O)c1cccc(Cn2ccc3cc4c(cc3c2=O)OCO4)c1
Rmax [1]: 51.4%
Activity [2]: 50.6%

pEC50 [1]: 6.00
Compound: COc1cc(OC)c2c(=O)n(Cc3ccc(OC)c(OC)c3)ccc2c1
Rmax [1]: 76.4%
Activity [2]: 66.8%

pEC50 [1]: 5.70
Compound: COc1ccc2c(=O)n(Cc3cc(OC)c(OC)c(OC)c3)ccc2c1
Rmax [1]: 84%
Activity [2]: 72%

Compound: COC(=O)c1cccc(Cn2ccc3cc(OC)c(OC)cc3c2=O)c1
Activity [2]: 37.6%

Compound: COc1cc2ccn(Cc3ccccc3)c(=O)c2cc1OC
Activity [2]: 42.3%

Compound: COc1cc2ccn(Cc3ccc(F)cc3)c(=O)c2cc1OC
Activity [2]: 35.2%

pEC50 [1]: 9.50
Compound: CCOC(=O)C1=C(C)NC(C)=C(C(=O)OC)C1c1cccc([N+](=O)[O-])c1 (stereo not given) [NITRENDIPINE]
Rmax [1]: 99.8%
Activity [2]: 99.9%
Activity [5]: 9 mmHg
Activity [9]: 5 mmHg

pEC50 [1]: 5.20
Compound: COc1cc(OC)c2c(=O)n(Cc3cc(OC)c(OC)c(OC)c3)ccc2c1
Rmax [1]: 89.5%
Activity [2]: 53.1%

pEC50 [1]: 5.60
Compound: COc1cccc2ccn(Cc3ccccc3)c(=O)c12
Rmax [1]: 71.3%
Activity [2]: 63.2%

pEC50 [1]: 6.10
Compound: COc1ccc(Cn2ccc3cc(OC)ccc3c2=O)cc1
Rmax [1]: 90.8%
Activity [2]: 83.7%

pEC50 [1]: 6.70
pEC50 [14]: 7.70
pEC50 [15]: 6.90
pEC50 [16]: 6.20
pEC50 [17]: 6.40
pEC50 [18]: 5.70
Compound: COc1ccc(Cn2ccc3cccc(OC)c3c2=O)cc1
Rmax [1]: 106%
Activity [2]: 96.3%
inhibition [3]: Active
Emax [14]: 95.4%
Emax [15]: 99.9%
Emax [16]: 122%
Emax [17]: 103%
Emax [18]: 107%
Activity [4]: 6 mmHg
Activity [5]: 14 mmHg
Activity [6]: 38 mmHg
Activity [7]: 46 mmHg
Activity [8]: 10 mmHg
Activity [9]: 16 mmHg
Activity [10]: 44 mmHg
Activity [11]: 53 mmHg
Activity [19]: 4 mmHg
Activity [20]: 7 mmHg
Activity [21]: 6 mmHg
Activity [22]: 0 mmHg
Activity [23]: 8 mmHg
Activity [24]: 10 mmHg
inhibition [12]: Dose-dependent effect
inhibition [13]: Dose-dependent effect

pEC50 [1]: 6.40
Compound: COc1ccc2c(=O)n(Cc3ccc(OCc4ccc(F)cc4)c(OC)c3)ccc2c1
Rmax [1]: 94.3%
Activity [2]: 82.4%

pEC50 [1]: 5.70
Compound: COc1cc2ccn(Cc3cccc([N+](=O)[O-])c3)c(=O)c2cc1OC
Rmax [1]: 67.4%
Activity [2]: 57.4%

pEC50 [1]: 6.30
Compound: COc1cc(O)c2c(=O)n(Cc3ccc(OC)c(OC)c3)ccc2c1
Rmax [1]: 91.6%
Activity [2]: 81.3%
